Reference: article PMC3199943, “Screening the MayBridge Rule of 3 Fragment Library for Compounds That Interact with the Trypanosoma brucei myo-Inositol-3-Phosphate Synthase and/or Show Trypanocidal Activity” (Molecular Biology International, 2011)
Read-outs that look alike come from different tables or passages of the source.

Columns and labels:
[1] = target: T1, TbINO1 (Trypanosoma brucei brucei, UniProt Q5QQ46); assay: biochemical; type: binding
T1 sequence (Q5QQ46 1-528): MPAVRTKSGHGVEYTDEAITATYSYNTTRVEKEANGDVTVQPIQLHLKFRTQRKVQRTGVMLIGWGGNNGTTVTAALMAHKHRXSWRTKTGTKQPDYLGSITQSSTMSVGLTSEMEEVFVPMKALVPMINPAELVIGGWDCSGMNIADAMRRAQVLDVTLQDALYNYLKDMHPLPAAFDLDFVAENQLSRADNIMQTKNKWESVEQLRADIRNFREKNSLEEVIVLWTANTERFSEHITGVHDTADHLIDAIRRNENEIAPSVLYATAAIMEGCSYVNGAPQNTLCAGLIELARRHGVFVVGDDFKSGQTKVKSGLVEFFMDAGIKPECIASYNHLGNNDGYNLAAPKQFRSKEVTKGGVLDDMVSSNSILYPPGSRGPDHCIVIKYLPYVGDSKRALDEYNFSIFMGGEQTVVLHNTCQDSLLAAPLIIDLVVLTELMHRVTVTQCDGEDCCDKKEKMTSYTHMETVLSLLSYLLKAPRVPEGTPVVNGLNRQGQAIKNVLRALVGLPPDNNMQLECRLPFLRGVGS

[2] = tested on: HeLa cells; assay: cells; details: for viability at 500 µM: Homo sapiens, HeLa, 65 h; for HeLa Cells Alamar Blue: Supplementary Table 1
Procedure, shortened: (§1)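 Alamar Blue read-out after a 5 h dye incubation that followed ~65 h compound exposure. Cells: HeLa or A549, 2 × 10^4/well, DMEM + 10% FCS + 2 mM L-Glutamine.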

[3] = tested on: A549 cells; assay: Cytotoxicity against A549 cells, Alamar Blue; type: cell-based; details: Supplementary Table 1, compound 0.5 mM, percentage of controls (n=1); for viability at 500 µM: Homo sapiens, A549, 65 h
Procedure, shortened: as §1

[4] = read-out: Tb Ino1 Tm Shift [˚C]
[5] = read-out: HeLa Cells Alamar Blue
[6] = Supplementary Table 1, compound 1mM, mean ± SD from Boltzman curve fitting
[7] = compound 0.5 mM, percentage of controls, mean ± SD (n=3) or SE (n=2)
[8] = Supplementary Table 1, compound 1mM, mean ± SD from Boltzman curve fitting, read-out: Tb Ino1 Tm Shift [˚C]

Row | Structure (SMILES) | ΔTm at 1000 µM [1, 4] [°C] | viability at 500 µM [2, 5] [%] | viability at 500 µM [3] [%] | further results
1 | O=C(O)Cc1coc2ccccc12 [compound 410, benzo[b]furan‐3‐ylacetic acid] | 0.8 ± 0.07 | 54.1 ± 10.3 | 97.4 | –
2 | NC(=S)c1ccno1 [compound 86, isoxazole‐5‐carbothioamide] | 0.94 ± 0.08 | 102 ± 3.4 | 105 | –
3 | Nc1cc2ccccc2cn1 [compound 153, isoquinolin‐3‐amine] | 0.27 ± 0.06 | 88.5 ± 16.5 | 118 | –
4 | CNCc1cc(-c2ccccc2)nn1C [compound 631, N‐methyl‐N‐[(1‐methyl‐3‐phenyl‐1H‐pyrazol‐5‐yl)methyl]amine] | – | – | – | Tb Ino1 Tm Shift [˚C] [1, 6]: 0.5 ± 0.08 °C; HeLa Cells Alamar Blue [2, 7]: 66.2 ± 16.3 percentage of controls; A549 Cells Alamar Blue [3]: 100.2 percentage of controls
5 | Cn1ccc(C(F)(F)F)n1 [compound 181, 1‐methyl‐3‐(trifluoromethyl)‐1H‐pyrazole] | 0.11 ± 0.08 | 115 ± 9.9 | 58.4 | –
6 | Nc1cccc(-c2cnco2)c1 [compound 267, 3‐(1,3‐oxazol‐5‐yl)aniline] | 0.13 ± 0.09 | 75 ± 15.2 | 79.8 | –
7 | O=C(O)c1ccc2ncccc2c1 [compound 370, quinoline‐6‐carboxylic acid] | 0.57 ± 0.04 | 109 ± 13.1 | 152 | –
8 | Cc1nc(C(=O)O)cs1 [compound 146, 2‐methyl‐1,3‐thiazole‐4‐carboxylic acid] | 0.1 ± 0.08 | 87 ± 6.4 | 109 | –
9 | O=C(O)Cc1cc(F)cc(F)c1 [compound 359, 2‐(3,5‐difluorophenyl)acetic acid] | 0.13 ± 0.06 | 108 ± 13.6 | 128 | –
10 | OCc1cnccn1 [compound 23, 2‐pyrazinylmethanol] | 0.27 ± 0.07 | 77.5 ± 12.3 | 75.9 | –
11 | Oc1ccc(F)cc1 [compound 29, 4‐fluorophenol] | 0.23 ± 0.08 | – | 88.4 | viability at 500 µM ([2]; read-out: HeLa Cells Alamar Blue, Supplementary Table 1, compound 0.5 mM, percentage of controls, mean ± SD (n=3) or SE (n=2)): 96.2 ± 7.7%
12 | CCOC(=O)c1c(N)sc(C)c1C [compound 617, ethyl 2‐amino‐4,5‐dimethylthiophene‐3‐carboxylate] | – | – | – | Tb Ino1 Tm Shift [˚C] [1, 6]: 1.47 ± 0.07 °C; HeLa Cells Alamar Blue [2, 7]: 69.1 ± 9.3 percentage of controls; A549 Cells Alamar Blue [3]: 75.2 percentage of controls
13 | CN(C)CCOc1ccccc1CO [compound 593, {2‐[2‐(dimethylamino)ethoxy]phenyl}methanol] | – | – | – | Tb Ino1 Tm Shift [˚C] [1, 6]: 0.13 ± 0.06 °C; HeLa Cells Alamar Blue [2, 7]: 77.9 ± 13.5 percentage of controls; A549 Cells Alamar Blue [3]: 59.2 percentage of controls
14 | CC1=NNC(=O)CC1 [compound 31, 6‐methyl‐2,3,4,5‐tetrahydropyridazin‐3‐one] | – | – | – | Tb Ino1 Tm Shift [˚C] [1, 6]: 0.22 ± 0.07 °C; HeLa Cells Alamar Blue [2, 7]: 85.4 ± 6.1 percentage of controls; A549 Cells Alamar Blue [3]: 68.2 percentage of controls
15 | CC(C)(C)OC(=O)Nc1ccsc1 [compound 619, tert‐butyl N‐(3‐thienyl)carbamate] | 0.21 ± 0.07 | 80 ± 17.5 | 74.9 | –
16 | O=C(O)c1cccc(-c2ccccn2)c1 [compound 611, 3‐pyrid‐2‐ylbenzoic acid] | 0.19 ± 0.07 | 87 ± 12.6 | 73.9 | –
17 | Cc1cccc(CN)c1C [compound 113, 2,3‐dimethylbenzylamine] | 0.12 ± 0.07 | 89.3 ± 15.9 | 83.6 | –
18 | Cc1cc(C(N)=S)no1 [compound 140, 5‐methylisoxazole‐3‐carbothioamide] | 0.2 ± 0.07 | 89.2 ± 6.5 | 110 | –
19 | OCc1cc2cccnc2s1 [compound 311, thieno[2,3‐b]pyridin‐2‐ylmethanol] | 0.8 ± 0.08 | 92 ± 11.8 | 77.5 | –
20 | Cc1cc(N)n(C)n1 [compound 26, 1,3‐dimethyl‐1H‐pyrazol‐5‐amine] | 0.54 ± 0.07 | 85.5 ± 9.4 | 70.1 | –
21 | CCOC(=O)c1csc(C)n1 [compound 356, ethyl 2‐methyl‐1,3‐thiazole‐4‐carboxylate] | 0.28 ± 0.08 | 106 ± 5.3 | 79.8 | –

Row | Structure (SMILES) | ΔTm at 1000 µM [1, 4] [°C] | viability at 500 µM [2, 5] [%] | viability at 500 µM [3] [%] | further results
22 | OCc1cn2ccccc2n1 [compound 172, imidazo[1,2‐a]pyridin‐2‐ylmethanol] | 0.44 ± 0.08 | 86.6 ± 15.1 | 97.5 | –
23 | N#CCc1ccccn1 [compound 46, 2‐(2‐pyridyl)acetonitrile] | 1.11 ± 0.24 | 63.2 ± 17.9 | 82.6 | –
24 | NC1Cc2ccccc2C1 [compound 104, indan‐2‐amine] | – | 70 ± 18.5 | 123 | ΔTm at 1000 µM [1, 8]: 0.89 ± 0.05 °C
25 | CN1CCN(C)C1=O [compound 35, 1,3‐dimethylimidazolidin‐2‐one] | – | 101 ± 6.6 | 92.7 | ΔTm at 1000 µM [1, 8]: 0.04 ± 0.07 °C
26 | COC(=O)c1c[nH]c2ccccc12 [compound 392, methyl 1H‐indole‐3‐carboxylate] | 0.22 ± 0.06 | 110 ± 3.7 | 88.1 | –
27 | OCc1ccc2nccn2c1 [compound 171, imidazo[1,2‐a]pyridin‐6‐ylmethanol] | 0.84 ± 0.09 | 94.1 ± 15.6 | 99.4 | –
28 | NC1CCSCC1 [compound 45, tetrahydrothiopyran‐4‐ylamine] | 0.24 ± 0.07 | 88.6 ± 3.1 | 95.6 | –
29 | COC(=O)c1cccc(CN)c1.Cl [compound 632, 3‐Aminomethylbenzoic acid methyl ester hydrochloride] | – | – | – | Tb Ino1 Tm Shift [˚C] [1, 6]: 0.22 ± 0.07 °C; HeLa Cells Alamar Blue [2, 7]: 44.8 ± 10.2 percentage of controls; A549 Cells Alamar Blue [3]: 107.3 percentage of controls
30 | COc1cccc(OC)c1SC [compound 481, 1,3‐dimethoxy‐2‐(methylthio)benzene] | 0.07 ± 0.08 | 104 ± 17.6 | 103 | –
31 | Nc1cccc(Cn2ccnc2)c1 [compound 377, 3‐(1H‐imidazol‐1‐ylmethyl)aniline] | 0.19 ± 0.07 | 103 ± 12.6 | 62.4 | –
32 | COc1ccc(C#N)cn1 [compound 108, 6‐methoxynicotinonitrile] | 0.38 ± 0.07 | 95 ± 10.2 | 125 | –
33 | OCc1ccc2occc2c1 [compound 168, 1‐benzofuran‐5‐ylmethanol] | 0.39 ± 0.08 | 120 ± 11.4 | 75.1 | –
34 | O=C(O)Cc1c[nH]c2ccccc12 [compound 391, 2-(1H-indol-3-yl)acetic acid] | – | 42.6 ± 6.4 | 134 | ΔTm at 1000 µM ([1]; read-out: TbIno1 Tm shift [°C]): 1.67 ± 0.08 °C; viability at 500 µM ([2]; read-out: HeLa Cells Alamar Blue (% survival)): 42.6 ± 6.4%
35 | O=C(O)c1cccc(-n2cccc2)c1 [compound 511, 3‐(1H‐pyrrol‐1‐yl)benzoic acid] | 0.6 ± 0.08 | 102 ± 12.3 | 73 | –
36 | C#CCN1CCS(=O)(=O)CC1 [compound 379, 4‐(Prop‐2‐ynyl)thiomorpholine 1,1‐dioxide] | – | – | – | Tb Ino1 Tm Shift [˚C] [1, 6]: 0.32 ± 0.08 °C; HeLa Cells Alamar Blue [2, 7]: 95.6 ± 12.9 percentage of controls; A549 Cells Alamar Blue [3]: 154 percentage of controls
37 | O=C(O)CCc1ccccc1O [compound 323, 3‐(2‐hydroxyphenyl)propanoic acid] | 1.23 ± 0.07 | 113 ± 2.8 | 110 | –
38 | Cl.c1ccc2c(c1)CCNC2 [compound 343, 1,2,3,4‐tetrahydroisoquinoline hydrochloride] | – | – | – | Tb Ino1 Tm Shift [˚C] [1, 6]: 0.37 ± 0.06 °C; HeLa Cells Alamar Blue [2, 7]: 83.5 ± 7.8 percentage of controls; A549 Cells Alamar Blue [3]: 86.3 percentage of controls
39 | O=C(O)c1cc2ccccc2cn1 [compound 555, isoquinoline‐3‐carboxylic acid hydrate] | – | 92.1 ± 10.1 | 100 | ΔTm at 1000 µM [1, 8]: 0.5 ± 0.09 °C
40 | Nc1cc(F)cc(F)c1 [compound 89, 3,5‐difluoroaniline] | 0.3 ± 0.07 | 104 ± 10.5 | 132 | –
41 | NC(=O)c1ccc(F)c(Cl)c1 [compound 380, 3‐chloro‐4‐fluorobenzamide] | 0.31 ± 0.06 | 92.2 ± 13.4 | 95.9 | –
42 | O=C[C@H](O)[C@@H](O)[C@H](O)[C@H](O)COP(=O)(O)O [glucose-6-phosphate, reference compound] | – | – | – | TbINO1 Tm increase ([1]; substrate, 5 mM, positive control): 0.70 ± 0.28 °C
